Here are results for eight molecules from patent publication US20060148840A1, “Pyrrolodihydroisoquinolines as pde10 inhibitors” (Altana Pharma AG, priority 2003, published 2006).

Regarding `CCOC(=O)c1c(-c2cccc(N(C)C)c2)c(C)n2c1-c1cc(OC)c(OC)cc1CC2(C)C` [Example 4, 2-(3-Dimethylamino-phenyl)-8,9-dimethoxy-3,5,5-trimethyl-5,6-dihydro-pyrrolo[2,1-a]isoquinoline-1-carboxylic acid ethyl ester], the melting point fell in the range of 101 to 102 °C. As for `COc1cc2c(cc1OC)-c1c(C#N)c(-c3cccc4ccccc34)c(C)n1CC2` [Example 22, 8,9-Dimethoxy-3-methyl-2-naphthalen-1-yl-5,6-dihydro-pyrrolo[2,1-a]isoquinoline-1-carbonitrile], the figure is 226 to 229 °C; as for `COC(=O)CCc1c(-c2ccncc2)c(C#N)c2n1CCc1cc(OC)c(OC)cc1-2` [Example 29, 3-(1-Cyano-8,9-dimethoxy-2-pyridin-4-yl-5,6-dihydro-pyrrolo[2,1-a]isoquinolin-3-yl)-propionic acid methyl ester], 191 to 193 °C; as for `COc1cc2c(cc1OC)-c1c(C#N)c(-c3cn(S(C)(=O)=O)c4ccccc34)c(C)n1C(C)C2` (centres unmarked) [Example 40, 2-(1-Methanesulfonyl-1H-indol-3-yl)-8,9-dimethoxy-3,5-dimethyl-5,6-dihydro-pyrrolo[2,1-a]isoquinoline-1-carbonitrile], 219 to 221 °C.

For the molecule `COc1cc2c(cc1OC)-c1c(C#N)c(-c3ccnc(C)c3)c(C)n1C(C)C2` (centres unmarked) [Example 45, 8,9-Dimethoxy-3,5-dimethyl-2-(2-methyl-pyridin-4-yl)-5,6-dihydro-pyrrolo[2,1-a]isoquinoline-1-carbonitrile], the melting point lay in the range of 187 to 189 °C.

In the case of `CCOc1cc2c(cc1OC)-c1c(C#N)c(-c3cc(C)c(O)c(C)c3)c(C)n1C(C)C2` (centres unmarked) [Example 53, 8-Ethoxy-2-(4-hydroxy-3,5-dimethyl-phenyl)-9-methoxy-3,5-dimethyl-5,6-dihydro-pyrrolo[2,1-a]isoquinoline-1-carbonitrile], the melting point lay in the range of 232 to 234 °C. The molecule `COC(=O)c1c(-c2cc(C)c(O)c(C)c2)c(C)n2c1-c1cc(OC)c(OC)cc1CC2C` (centres unmarked) [Example 65, 2-(4-Hydroxy-3,5-dimethyl-phenyl)-8,9-dimethoxy-3,5-dimethyl-5,6-dihydro-pyrrolo[2,1-a]isoquinoline-1-carboxylic acid methyl ester] had a melting point of 177 to 179 °C. In the case of `COc1cc2c(cc1OC)-c1c(C)c(-c3cc(C)c(O)c(C)c3)c(C)n1CC2` [Example 68, 4-(8,9-Dimethoxy-1,3-dimethyl-5,6-dihydro-pyrrolo[2,1-a]isoquinolin-2-yl)-2,6-dimethyl-phenol] it was 183 to 185 °C.

Usually melting point stands for the temperature of the solid-liquid transition.
